Measurements taken from ChEMBL document CHEMBL1201862, “PubChem BioAssay data set” (2004).
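Briefly, cells in 96-well plates were exposed to five compound concentrations for 48 h, and endpoints were estimated by linear interpolation. GI50 marks 50% less growth.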 Activity calls are given as the source filed them. No stated cut-off is given here; in the data, active = GI50 up to about 1.1 µM and inactive = higher.

Key:
Test in all cases: inhibition of tumour cell growth, NCI panel, 48 h
HOP-62 = system: HOP-62
ACHN = system: ACHN
MOLT-4 = system: MOLT-4
SK-MEL-5 = system: SK-MEL-5
EKVX = system: EKVX
OVCAR-3 = system: OVCAR-3
A498 = system: A498
LOX IMVI = system: LOX IMVI
SF-539 = system: SF-539
A549 = system: A549
HCT-15 = system: HCT-15
SN12C = system: SN12C
HT-29 = system: HT-29
NCI-H23 = system: NCI-H23
SK-MEL-28 = system: SK-MEL-28

## O=C(Nc1ccccc1)n1cc(-c2ccccn2)c(N2CCOCC2)n1
HOP-62
  GI50: 6.59 µM (inactive)
ACHN
  GI50: 36.6 µM (inactive)
MOLT-4
  GI50: 4.15 µM (inactive)
SK-MEL-5
  GI50: 6.04 µM (inactive)
EKVX
  GI50: > 100 µM (inactive)
OVCAR-3
  GI50: 2.12 µM (inactive)
A498
  GI50: 4.11 µM (inactive)
LOX IMVI
  GI50: 5.75 µM (inactive)
SF-539
  GI50: 6.73 µM (inactive)
A549
  GI50: 18.8 µM (inactive)
HCT-15
  GI50: 4.47 µM
SN12C
  GI50: 35.2 µM (inactive)
HT-29
  GI50: 2.69 µM (inactive)

## N#CC(c1ccc(Cl)cc1)c1cccc(Cl)n1 (stereo not given)
HOP-62
  GI50: 91 µM (inactive)
ACHN
  GI50: 32.7 µM (inactive)
MOLT-4
  GI50: 55.8 µM (inactive)
NCI-H23
  GI50: 43.3 µM (inactive)
SK-MEL-28
  GI50: 86.9 µM (inactive)
EKVX
  GI50: 39 µM (inactive)
OVCAR-3
  GI50: 34 µM (inactive)
A498
  GI50: 74.8 µM (inactive)
A549
  GI50: 31 µM (inactive)
SN12C
  GI50: 54.3 µM (inactive)
HT-29
  GI50: 83.6 µM (inactive)

## CC1=CC(=O)NP(=O)(Oc2ccc(C)cc2)N1 (stereo not given)
HOP-62
  GI50: > 100 µM (inactive)
ACHN
  GI50: > 100 µM (inactive)
MOLT-4
  GI50: > 100 µM (inactive)
NCI-H23
  GI50: > 100 µM (inactive)
SK-MEL-28
  GI50: > 100 µM (inactive)
SK-MEL-5
  GI50: > 100 µM (inactive)
EKVX
  GI50: > 100 µM (inactive)
OVCAR-3
  GI50: > 100 µM (inactive)
A498
  GI50: > 100 µM (inactive)
LOX IMVI
  GI50: > 100 µM (inactive)
SF-539
  GI50: > 100 µM (inactive)
HCT-15
  GI50: > 100 µM
SN12C
  GI50: > 100 µM (inactive)
HT-29
  GI50: > 100 µM (inactive)

## NC(=S)N/N=C/c1cn(CCCl)c2ccccc12
HOP-62
  GI50: 89.5 µM (inactive)
MOLT-4
  GI50: 14.2 µM (inactive)
NCI-H23
  GI50: > 100 µM (inactive)
SK-MEL-28
  GI50: 63.5 µM (inactive)
SK-MEL-5
  GI50: 15.9 µM (inactive)
EKVX
  GI50: 14.7 µM (inactive)
OVCAR-3
  GI50: 36.8 µM (inactive)
LOX IMVI
  GI50: 25 µM (inactive)
A549
  GI50: 34.9 µM (inactive)
HCT-15
  GI50: 8.69 µM
SN12C
  GI50: 89.7 µM (inactive)
HT-29
  GI50: 23.9 µM (inactive)

## COc1ccc([C@@H]2OC(=O)C3C2C(=O)O[C@H]3c2ccc(OC)cc2)cc1 (stereo not given in full)
HOP-62
  GI50: > 100 µM (inactive)
ACHN
  GI50: > 100 µM (inactive)
MOLT-4
  GI50: > 100 µM (inactive)
NCI-H23
  GI50: > 100 µM (inactive)
SK-MEL-28
  GI50: > 100 µM (inactive)
EKVX
  GI50: > 100 µM (inactive)
OVCAR-3
  GI50: > 100 µM (inactive)
A498
  GI50: > 100 µM (inactive)
SF-539
  GI50: > 100 µM (inactive)
A549
  GI50: > 100 µM (inactive)
HCT-15
  GI50: > 100 µM
SN12C
  GI50: > 100 µM (inactive)
HT-29
  GI50: > 100 µM (inactive)

## O=C1C2=C(CCCCC2)C2CCCCC12O (stereo not given)
HOP-62
  GI50: > 100 µM (inactive)
ACHN
  GI50: > 100 µM (inactive)
MOLT-4
  GI50: > 100 µM (inactive)
NCI-H23
  GI50: > 100 µM (inactive)
SK-MEL-28
  GI50: > 100 µM (inactive)
EKVX
  GI50: > 100 µM (inactive)
OVCAR-3
  GI50: > 100 µM (inactive)
LOX IMVI
  GI50: > 100 µM (inactive)
SF-539
  GI50: > 100 µM (inactive)
A549
  GI50: > 100 µM (inactive)
SN12C
  GI50: > 100 µM (inactive)
HT-29
  GI50: > 100 µM (inactive)

## CCOC(=O)[C-]([N+]#N)[Si](C)(C)C
HOP-62
  GI50: 20.5 µM (inactive)
ACHN
  GI50: > 100 µM (inactive)
NCI-H23
  GI50: 75.5 µM (inactive)
SK-MEL-28
  GI50: 18.5 µM (inactive)
SK-MEL-5
  GI50: > 100 µM (inactive)
OVCAR-3
  GI50: > 100 µM (inactive)
A498
  GI50: > 100 µM (inactive)
LOX IMVI
  GI50: 85.9 µM (inactive)
SF-539
  GI50: > 100 µM (inactive)
A549
  GI50: > 100 µM (inactive)
HCT-15
  GI50: 27.5 µM
SN12C
  GI50: > 100 µM (inactive)
HT-29
  GI50: > 100 µM (inactive)

## O=C(O)CNc1c2ccccc2nc2ccccc12
ACHN
  GI50: > 100 µM (inactive)
MOLT-4
  GI50: > 100 µM (inactive)
NCI-H23
  GI50: > 100 µM (inactive)
SK-MEL-28
  GI50: > 100 µM (inactive)
SK-MEL-5
  GI50: > 100 µM (inactive)
EKVX
  GI50: > 100 µM (inactive)
OVCAR-3
  GI50: 80.4 µM (inactive)
LOX IMVI
  GI50: > 100 µM (inactive)
SF-539
  GI50: > 100 µM (inactive)
A549
  GI50: > 100 µM (inactive)
HCT-15
  GI50: > 100 µM
SN12C
  GI50: > 100 µM (inactive)
HT-29
  GI50: > 100 µM (inactive)

## c1ccc(COCC2OC3c4ccccc4COC3C2OCc2ccccc2)cc1 (stereo not given)
ACHN
  GI50: > 100 µM (inactive)
MOLT-4
  GI50: 48.8 µM (inactive)
NCI-H23
  GI50: 94.8 µM (inactive)
SK-MEL-28
  GI50: > 100 µM (inactive)
SK-MEL-5
  GI50: 70.6 µM (inactive)
EKVX
  GI50: > 100 µM (inactive)
OVCAR-3
  GI50: > 100 µM (inactive)
SF-539
  GI50: > 100 µM (inactive)
A549
  GI50: > 100 µM (inactive)
HCT-15
  GI50: 69.5 µM
SN12C
  GI50: > 100 µM (inactive)
HT-29
  GI50: 99.1 µM (inactive)

## CC1OC(n2cc(C(F)(F)F)c(=O)[nH]c2=O)C=CC1=O (stereo not given)
HOP-62
  GI50: 27.7 µM (inactive)
ACHN
  GI50: 17.5 µM (inactive)
MOLT-4
  GI50: 22.6 µM (inactive)
NCI-H23
  GI50: 18.2 µM (inactive)
SK-MEL-28
  GI50: 21 µM (inactive)
OVCAR-3
  GI50: 17.7 µM (inactive)
LOX IMVI
  GI50: 17.6 µM (inactive)
SF-539
  GI50: 18.9 µM (inactive)
A549
  GI50: 47.3 µM (inactive)
HCT-15
  GI50: 20.7 µM
SN12C
  GI50: 23.3 µM (inactive)
HT-29
  GI50: 24.5 µM (inactive)

## COC(=O)C1=C(C(=O)OC)C2C(C)=CC(C)=CN2C(C#N)=C(SC)S1 (stereo not given)
HOP-62
  GI50: 51.8 µM (inactive)
ACHN
  GI50: 28.4 µM (inactive)
MOLT-4
  GI50: 23.6 µM (inactive)
NCI-H23
  GI50: 17.7 µM (inactive)
SK-MEL-28
  GI50: 19.3 µM (inactive)
SK-MEL-5
  GI50: 14.6 µM (inactive)
EKVX
  GI50: 25.9 µM (inactive)
OVCAR-3
  GI50: 28.4 µM (inactive)
LOX IMVI
  GI50: 17.9 µM (inactive)
SF-539
  GI50: 19.2 µM (inactive)
A549
  GI50: 37.2 µM (inactive)
HCT-15
  GI50: 19.7 µM
SN12C
  GI50: 21.4 µM (inactive)
HT-29
  GI50: 21.1 µM (inactive)

## O=C(COc1ccc(Cl)cc1)N1CCN(C(=O)COc2ccc(Cl)cc2)c2ccccc21
HOP-62
  GI50: > 100 µM (inactive)
ACHN
  GI50: 33.6 µM (inactive)
MOLT-4
  GI50: 19.2 µM (inactive)
NCI-H23
  GI50: > 100 µM (inactive)
SK-MEL-28
  GI50: 21.2 µM (inactive)
EKVX
  GI50: 26.3 µM (inactive)
OVCAR-3
  GI50: 54.6 µM (inactive)
A498
  GI50: 74.8 µM (inactive)
LOX IMVI
  GI50: 91.2 µM (inactive)
SF-539
  GI50: > 100 µM (inactive)
A549
  GI50: 33.5 µM (inactive)
HT-29
  GI50: 50.5 µM (inactive)

## CC12CP(=O)(c3ccccc3)CC1C2(Cl)Cl (stereo not given)
HOP-62
  GI50: > 100 µM (inactive)
MOLT-4
  GI50: > 100 µM (inactive)
NCI-H23
  GI50: > 100 µM (inactive)
SK-MEL-28
  GI50: > 100 µM (inactive)
SK-MEL-5
  GI50: > 100 µM (inactive)
EKVX
  GI50: > 100 µM (inactive)
OVCAR-3
  GI50: > 100 µM (inactive)
LOX IMVI
  GI50: > 100 µM (inactive)
SF-539
  GI50: > 100 µM (inactive)
A549
  GI50: > 100 µM (inactive)
SN12C
  GI50: > 100 µM (inactive)
HT-29
  GI50: > 100 µM (inactive)

## N#CC1(C=O)c2ccccc2C=CN1C(=O)c1ccccc1 (stereo not given)
ACHN
  GI50: 27.4 µM (inactive)
MOLT-4
  GI50: 18.7 µM (inactive)
NCI-H23
  GI50: 41.7 µM (inactive)
SK-MEL-28
  GI50: > 100 µM (inactive)
SK-MEL-5
  GI50: 11.4 µM (inactive)
EKVX
  GI50: 29.7 µM (inactive)
OVCAR-3
  GI50: 16.7 µM (inactive)
A498
  GI50: 26.4 µM (inactive)
A549
  GI50: 76.2 µM (inactive)
HCT-15
  GI50: 40.7 µM
SN12C
  GI50: 50 µM (inactive)
HT-29
  GI50: 38.2 µM (inactive)

## CC(=O)Nc1c(Nc2ccccc2)[nH]c(C)nc1=S
HOP-62
  GI50: > 100 µM (inactive)
ACHN
  GI50: > 100 µM (inactive)
MOLT-4
  GI50: > 100 µM (inactive)
NCI-H23
  GI50: > 100 µM (inactive)
SK-MEL-28
  GI50: > 100 µM (inactive)
SK-MEL-5
  GI50: > 100 µM (inactive)
EKVX
  GI50: > 100 µM (inactive)
OVCAR-3
  GI50: > 100 µM (inactive)
LOX IMVI
  GI50: > 100 µM (inactive)
A549
  GI50: > 100 µM (inactive)
HCT-15
  GI50: > 100 µM
SN12C
  GI50: > 100 µM (inactive)

## CCOC(=O)/C(C#N)=C1/C(O)=C(C(=O)OC)C(C(=O)OC)=C1C(=O)OC.c1ccncc1
ACHN
  GI50: > 100 µM (inactive)
MOLT-4
  GI50: > 100 µM (inactive)
NCI-H23
  GI50: > 100 µM (inactive)
SK-MEL-28
  GI50: > 100 µM (inactive)
SK-MEL-5
  GI50: > 100 µM (inactive)
EKVX
  GI50: > 100 µM (inactive)
OVCAR-3
  GI50: > 100 µM (inactive)
LOX IMVI
  GI50: > 100 µM (inactive)
SF-539
  GI50: > 100 µM (inactive)
A549
  GI50: > 100 µM (inactive)
HCT-15
  GI50: > 100 µM
SN12C
  GI50: > 100 µM (inactive)
HT-29
  GI50: > 100 µM (inactive)
